Measured values taken from PubChem BioAssay (NCI).
Values joined by “and” are separate entries in the source; they are usually repeats but may differ in a detail not shown here. Equal entries are not always repeated.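 Dose response: 5 concentrations. Exposure: 48 h. Format: 96-well plates. Endpoint: linear interpolation; highest concentration if not reached. The concentration for 50% growth inhibition is given as GI50. TGI denotes the concentration required for complete inhibition of growth.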

Columns and labels:
Assay in all cases: growth of human tumour cells (NCI), 48 h
[1] = tested on: HT29 colon
[2] = tested on: EKVX NSCLC
[3] = tested on: K-562 leukemia
[4] = tested on: PC-3 prostate
[5] = tested on: OVCAR-8 ovarian
[6] = tested on: NCI-H460 lung
[7] = tested on: HL-60(TB) leukemia
[8] = tested on: COLO 205 colon
[9] = tested on: SR leukemia
[10] = tested on: SF-539 CNS

SMILES | TGI [1] | TGI [2] | TGI [3] [µM] | TGI [4] [µM] | TGI [5] [µM] | TGI [6] | TGI [7] | TGI [8] [µM] | TGI [9] [µM] | TGI [10] [µM] | GI50 [1] [µM] | GI50 [2] | GI50 [3] [µM] | GI50 [4] [µM] | GI50 [5] | GI50 [6] [µM] | GI50 [7] [µM] | GI50 [8] [µM] | GI50 [9] [µM] | GI50 [10] [µM]
CC(=O)O[C@H]1C(=O)[C@@]2(C)C(C(OC(=O)c3ccccc3)[C@]3(O)C[C@H](OC(=O)C(OC(=O)CCCC(=O)NCCCN(C)C)C(NC(=O)c4ccccc4)c4ccccc4)C(C)=C1C3(C)C)C1(OC(C)=O)COC1C[C@@H]2O (some centres undefined) | 2.22 µM | > 100 µM | 45.4 | 43 | 15.3 | 8.71 µM | 0.0832 µM | 0.0147 | 58.2 | 0.0184 |  |  |  |  |  |  |  |  |  | 
O=Nc1ccc(O)c(=O)cc1 | 10.7 µM | 23.4 µM | > 100 | 16.2 | 11 | 23.5 µM | 2.59 µM | 3.45 | 9.19 | 7.48 | 2.45 | 6.93 µM | 0.498 | 3.77 | 2.82 µM | 4.76 | 0.547 | 1.08 | 0.954 | 2.67
C=C1CC[C@@H]2[C@](C)(COC(C)=O)[C@H](OC(C)=O)CC[C@@]2(C)[C@@H]1CC(Nc1ccc(S(=O)(=O)NC(C)=O)cc1)C1=CCOC1=O (some centres undefined) | 3.55 µM | 20.9 µM | 17.6 | 16.8 | 8.42 | 17.9 µM | 12 µM | 4.82 | 18.1 | 7.77 | 1.57 | 10.8 µM | 2.58 | 6.56 | 2.25 µM | 6.72 | 2.45 | 1.81 | 0.991 | 2.39
O=C(Cc1ccc(/C=C/C(=O)c2ncc[nH]2)cc1)Nc1ccc(F)cc1 | 4.45 µM | 32.9 µM | > 33.3 | 11.9 | > 33.3 | 14.6 µM | 10.6 µM | 10.8 | 6.41 | 2.66 | 1.15 | 7.46 µM | 1.3 | 2.8 | 5.08 µM | 1.72 | 1.66 | 4.54 | 1.11 | 0.845
COc1cc(Nc2nc3cc(N)cc(N)c3nc2-c2ccccc2)cc(OC)c1OC | 35 µM | 47.4 µM | 40.1 | 59.3 | 34.9 | 52.8 µM | 23.3 µM | 27.1 | 16 | 28.9 |  | 17.6 µM | 12.5 | 14.2 | 15.3 µM | 17.1 | 6.65 | 14 | 3.31 | 14.8
CC(=O)Nc1ccc2c(c1)C(c1ccccc1Cl)=Nc1c(n[nH]c1C)N2 | > 25 µM |  | > 25 | > 25 | > 25 | > 25 µM | > 25 µM | > 22 | > 25 | 12.5 | 4.45 |  | 17.3 | > 25 | 13.4 µM | 1.85 | 14.8 | 1.53 | 1.16 | 0.999
COc1cc2c(cc1OC)[C@@H](Nc1ccc(C#N)cc1)C1COC(=O)[C@@H]1C2c1cc(OC)c(O)c(OC)c1 (some centres undefined) | 23.2 µM and > 100 µM | 95 µM and 62.5 µM |  | > 100 |  | 1.05 µM and 1.72 µM | 0.0606 µM and 0.192 µM | 15.6 | 0.0742 | 0.856 |  | 16.4 µM and 6.9 µM |  |  | 0.472 µM and 1.55 µM |  |  |  |  | 
COc1ccc2c(c1OC)C[C@@H]1c3c(cc4c(c3-2)OCO4)CCN1C | 41.3 µM | > 100 µM | 56.6 | 89.2 | > 100 | 91.4 µM | 27.2 µM | 40.3 | 54.3 | 50 |  |  |  |  |  |  |  |  |  | 
O=c1c2c(=NCCN3CCCC3)cc3c(=O)n(CCCN4CCOCC4)c(=O)c4c(-c5ccc(CN6CCCC6)cc5)cc(c(O)n1CCCN1CCOCC1)c2c4-3 | 0.413 µM | 0.484 µM | > 100 | 0.168 | 2.24 | 0.245 µM | 1.64 µM | 0.327 | 11.1 | 0.274 | < 0.0115 | 0.0828 µM | 0.0195 | 0.0278 | < 0.0255 µM | 0.0247 | 0.231 | 0.0641 | < 0.0108 | 0.0617
COc1ccc(C2=N[C@@H](Cc3ccccc3)C(=O)Nc3ccsc32)cc1 | 13.4 µM |  | 27 | 25.2 | 57.6 | 14.4 µM | 19.3 µM | 5.03 | 11.7 | 9.84 | 4.04 |  | 3.75 | 3.78 | 6.31 µM | 3.53 | 3.91 | 2.49 | 2.63 | 2.75
CCN1C(=S)N(c2ccccc2)C2NC(=S)N(/N=C/C=C/c3ccccc3OC)C21 (centres undefined) |  | > 100 µM | > 100 | > 100 | > 100 | > 100 µM | 0.6 µM | 2.16 |  | 0.732 | 0.329 | 0.505 µM | 0.302 | 0.398 | 0.487 µM | 0.37 | 0.245 | 0.435 | 0.3 | 0.253
Cc1cc(S(=O)(=O)Nc2nc3ccccc3o2)c(SCc2ccccc2)cc1Cl | > 100 µM | 55.8 µM | > 100 | 30.5 | 50.2 | 52.2 µM | > 100 µM | 51.1 | > 100 | 40.8 | 33.8 | 21.9 µM | 31.8 | 16.1 | 21 µM | 15.5 | 36.9 | 22.1 | 11.5 | 19.1
COc1ccc2c(c1)/C(=C\c1c(-c3cc(OC)ccc3OC)nc3sc(C)cn13)C(=O)N2C |  | > 100 µM | > 100 | 93.8 | > 100 | 93.9 µM | 41.4 µM | 44.2 | 53 | > 100 |  | 61.1 µM | 28 | 16.3 | 28.2 µM | 24.9 | 18.3 | 18.1 | 20.8 | 32.9
CCOC(=O)/C(=C/N1CCN(C(=O)c2ccco2)C1=S)C(=O)c1ccccc1 | > 50 µM | 23.7 µM | > 50 | > 50 | 35.2 | 15.4 µM | 31 µM | > 50 | 16.4 |  | 19.2 | 9.53 µM | 15.7 | 19.4 | 11.7 µM | 4.87 | 14.9 | 19.2 | 2.35 | 
NNC(=S)N/N=C(\C(=O)Nc1cccc(O)c1)C1C(=O)NC(=S)NC1=O | > 100 µM | > 100 µM | > 100 | > 100 | > 100 | > 100 µM | > 100 µM |  | > 100 | > 100 |  |  |  |  |  |  |  |  |  | 
O=C(Oc1cccc2cccnc12)c1cc2c(cc1Cl)SC(N(c1ccc(F)cc1)S(=O)(=O)c1ccc(Br)s1)=NS2(=O)=O | > 100 µM | 64.1 µM | > 100 | 73.9 |  | > 100 µM | > 100 µM | 50.8 | > 100 | 75.2 | 41 | 22.5 µM | 29.1 | 21.5 |  | 29.1 | 26.4 | 18.5 | 46.2 | 23.4
COC[C@@H](N=C1NC(=O)/C(=C/c2ccc3ncccc3c2)S1)c1ccccc1 | > 25 µM |  | > 25 | > 25 | > 25 | > 25 µM | 19.2 µM | > 25 | 15.6 | > 24 | 8.83 |  | 10.3 | 12.1 | 10.2 µM | 8 | 6.39 | 10.8 | 3.64 | 7.36
CC1=CC(=O)C2=C(C)CCC3C(C)C(=O)OC3C12 (centres undefined) | > 100 µM | > 100 µM |  | > 100 | > 100 | > 100 µM | > 100 µM | > 100 | > 100 | > 100 |  |  |  |  |  |  |  |  |  | 
CCOC(=O)c1ccc(NC(=O)Nc2nncs2)cc1 | 10.9 µM |  | > 46.6 | 24.2 | 13.5 | 14.1 µM | 6.7 µM | 2.63 | 24.3 | 2.36 | 0.189 |  | 0.0754 | 0.273 | 0.371 µM | 0.379 | 0.106 | 0.174 | 0.0527 | 0.162
O=C(Nc1ccc2[nH]nc(-c3ccncc3)c2c1)[C@@H]1CCN(CC(=O)N2CCN(c3ccc(-c4ncccn4)cc3)CC2)C1 | > 100 µM |  | > 73.2 | > 100 | > 100 | > 100 µM | > 100 µM | > 82.3 | > 65.4 | 31.3 | 0.0335 |  | 1.96 | 13.7 | 3.65 µM | > 100 | 0.132 | < 0.012 | 4.41 | 5.1
